The text below walks through data of patent publication US10596115B2, “Pharmaceutical composition for the treatment of diminution of bone tissue” (Council of Scientific & Industrial Research, priority 2013, dated 2020).

In series [1] the test system is Mice calverial osteoblast. The series is described as follows: Apoptosis assay (Annexin V/PI, FACS) in serum deprived MCOs. It counts as cell-based. The following applies: 10 nM, 24 h. As to the method:
Annexin V/PI staining for fluorescence-activated cell sorting (FACS) analysis was carried out using Calbiochem Annexin V-FITC Apoptosis Detection Kit (Calbiochem, USA) according to manufacturer's instructions.

Series [2] has as its system Mice Calvarial osteoblasts (MCOs). The series is described as follows: Mineralization assay (Alizarin red-S). It counts as cell-based. The following applies: 10 nM, 21 days, vs control group. As to the method:
Mineralization assay was carried out to assess the mineralizing ability and thus bone formation of osteoblasts cells. […] At the end of the experiment, the cells were washed with PBS and fixed with paraformaldehyde (4%) in PBS for 15 minutes. Alizarin red-S stain was used for staining mineralized nodules, followed by extraction of the stain using 10% acetic acid and 10% ammonium hydroxide for colorimetric quantification at 405 nm.

A further series deals with 20 S proteasome (Rattus norvegicus, UniProt P28075). The series is described as follows: 20 S proteasome activity assay in calvarial osteoblast cells. The conditions noted are these: for inhibition of 20 S proteasomal activity: calvarial osteoblast cells.
In a further series the test system is Smads. The conditions noted are these: Ito y et al, 2011; cited from earlier work.
Series [3] deals with Mice Calvarial osteoblasts (MCOs). The series is described as follows: Alkaline phosphatase (ALP) assay in mice calvarial osteoblasts. It counts as cell-based. The following applies: for ALP production / ALP activity compared with control: osteoblast differentiation medium, 1 pM to 1 μM; for dose most effective in stimulating ALP activity: dose range 1 pM to 1 μM. As for the experimental part:
For each experiment, 1 to 2 day old […] were used to harvest 20 to 35 calvaria at room temperature (25° C.). Briefly, individual calvaria were surgically isolated from the skull, the sutures were segregated, and the adherent tissue material was cleaned by gentle scrapping. As described previously, the pooled calvarias were kept for repeated digestion (15 minutes/digestion) with 0.05% trypsin and 0.1% collagenase P to release the cells. First digestion was discarded and cells were collected from the next four digestions. These cells were cultured in a modified essential medium (a-MEM) containing 10% fetal calf serum (FCS) and 1% penicillin/streptomycin (complete growth medium). Cultures of MCOs were allowed to reach 80% confluence for the experiments.
For the measurement of ALP activity, MCOs at approximately 80% confluence were trypsinized, and 2×10^3 cells/well were seeded onto 96-well plates. […] At the end of incubation period, total ALP activity was measured using p-nitrophenylphosphate (PNPP) as substrate, and absorbance was read at 405 nm.

For series [4] the test system is unchanged. The series can be described thus: Quantitative real time PCR of osteogenic genes in MCOs. It counts as cell-based. The following applies: 10 nM. As for the experimental part:
Cells were homogenized using 1 ml of TRIzol reagent (Invitrogen, Carlsbad, Calif., USA), and total RNA was extracted according to the manufacturer's protocol. cDNA was synthesized using RevertAid™ First Strand cDNA synthesis kit (#K1621 Fermentas, Canada) from 1 μg of total RNA. Quantitative real time PCR amplifications were performed in The LightCycler® 480 Real-Time PCR System (Roche Diagnostics, USA) using LightCycler SYBR Green (Roche Diagnostics, USA) according to the manufacturer's instruction. The sequences of primer sets for Smurf1, Smurf2, RunX2, BMP-2, alkaline phosphatase (ALP), osteocalcin (OCN), Collagen I (Coll) and GAPDH mRNAs, target sites on mRNAs and product sizes by PCR are shown in FIG. 6. The quantity of each sample was normalized using the CT (threshold cycle) value obtained for the GAPDH mRNA amplifications.

For series [5] the following is noted: Mundy GR et al, 2005; cited from earlier work.
Series [6] deals with serum osteocalcin in OVx mice. The series can be described thus: Bone turnover marker, serum osteocalcin EIA. It counts as in vivo. The following applies: 60 days, vs OVx+vehicle. The source says: Rat-MID™ Osteocalcin EIA (Immunodiagnostic, UK) performed using serum from treated and vehicle groups using manufacturer's protocol as provided in the kit.
Series [7] relates to drill-hole injury in femur of Sham and OVx Balb/c mice. The series is described as follows: Fracture healing drill-hole study. It counts as in vivo. An excerpt:
Sixty adult Balb/c mice (18-20 g each) were taken and divided into six groups of […] for the study. Each group included 12 animals per group. […] Mice were left for 8 weeks for the OVx mice to develop osteopenia. After 8 weeks, drill-hole injury was created in both sham and OVx groups. In mid femur region the front skin was incised straight and longitudinally 1 cm in length under anesthetic condition. After splitting the muscle, periosteum was stripped to expose the femoral bone surface. A drill-hole injury was made, 1 cm above the knee joint by inserting a drill bit with a diameter of 0.1 mm in the anterior portion of the diaphysis of the bilateral femurs. […] Each animal received intraperitoneal administration of fluorochrome calcein (20 mg·kg^−1) 24 h before autopsy. After 21 days of treatment as described above, all mice were euthanized and autopsied to collect their femurs for the measurement of bone micro architectural parameters at the drill hole site. Bones were embedded in acrylic material and 50 μm sections were made using an Isomet BoneCutter (Buehler, Lake Bluff, Ill. USA) and photographs were taken under confocal microscope LSM 510 Meta, Carl Zeiss, USA) aided with appropriate filters. The intensity of calcein binding, which is an indicator of the amount of new mineral deposition, was calculated using Carl Zeiss A M 4.2 image-analysis software.

The test system of a further series is uterus of OVx mice. The series is described as follows: Estrogenicity studies (uterine weight). The conditions noted are these: all doses. It counts as in vivo. As for the experimental part:
The uterus of each mouse was weighed and then fixed in 4% paraformaldehyde. A middle segment of each uterus was dehydrated in ascending grades of isopropanol, cleared in xylene and sections of about 5 μm thickness was prepared. Haematoxylin and eosin staining was done of 5 μm transverse sections and representative images were captured. Leica Qwin-Semiautomatic Image Analysis software (Leica Microsystems GmbH) was used to measure total uterine area, luminal area and luminal epithelial height.

The test system of a further series is Mouse bone marrow cells. The series is described as follows: Osteoclast culture, real-time expression of TRAP and RANK. It counts as cell-based. The following applies: bone marrow cultures with MCSF and RANKL, 6 days, vs control vehicle. As for the experimental part:
In vitro osteoclastogenesis was performed using standard protocol. Mouse bone marrow cells were flushed from femur using alpha-MEM. Cells were seeded in flask overnight in Osteoclast medium (alpha MEM, 10% FCS, antibiotic, EBSS, 10 ng/ml MCSF). […] The medium was replaced after every 48 hours. After 6 days of culture, the cells were washed with PBS and then fixed in 4% paraformaldehyde or used for RNA extraction using TRIZOL for analysis of TRAP, RANK mRNA levels by real-time PCR. Fixed cells were followed by TRAP staining using the standardized protocol.

In series [8] the test system is Mice primary osteoblast cells. The series is described as follows: Cell proliferation assay (direct cell count and BrdU). It counts as cell-based. The following applies: 24 h. As for the experimental part:
Mice primary osteoblast cells were plated at a density of 2.5×10^5 cells/ml/well in 12 well plates at 37° C. […] The cells were trypsinized and viable cells were counted with a hemocytometer using trypan blue dye exclusion. Cell counts were performed in duplicate and repeated in three cultures. […] Cell proliferation was determined using BrdU ELISA (from Calbiochem, Darmstadt, Germany) using manufacturer's instructions. For the last 3h of the 24 h stimulation, the, cells were trypsinized and 2000 cells/well were seeded in a-MEM supplemented with 10% fetal bovine serum, and the cells were pulsed with BrdU. Absorbance at dual wavelength of 450-540 nm was measured with a microplate reader.

Series [9] deals with Ovariectomized (OVx) Mice. The series can be described thus: In vivo efficacy of WFA on ovariectomized (OVx) mice, μCT. The conditions noted are these: doses 1, 5 and 10. Also noted: species or system Balb/c mice. As for the experimental part:
The intraperitoneal dose for iPTH (40 μg·kg^-1 for 3 days/week) used in this study as known anabolic agent. […] For dynamic histomorphometry measurements each animal was administered intraperitoneally with fluorochromes tetracycline (20 mg·kg^-1) on day 30 […] and calcein (20 mg·kg^-1) on day 60 (8 weeks) after the commencement of various treatments. After 8 weeks of treatment, all mice were euthanized and autopsied to collect bones (i.e., tibias and femurs) for measurement of bone parameter. […] BMCs were cultured in bone marrow differentiation medium to induce mineralization for 18 days. Mineralization was quantified as described. Alizarin red S stain was used for staining mineralized nodules, followed by extraction of the stain for quantification. […] The plasma samples were analyzed by HPLC according to reported method with slight modification. Sky Scan 1076 μCT scanner (Aartselaar, Belgium) was used to carryout μCT scanning of excised bones as described before. The bone samples were scanned at a resolution of 9 μm and reconstruction was done using the Sky Scan Nrecon software. The X-ray source was set at 50 kV and […], with a pixel size of 9 μm. A hundred projections were acquired over an angul arrange of 180°. […] Trabecular thickness (Tb.Th) and structure mode index (SMI) was calculated according to the method of Hildebrand and Ruegsegger. […]

Where a SMILES comes first, the peptide text is derived from it. The star is where a group is joined. Cbz = O=C(OCc1ccccc1)*; OtBu = CC(C)(C)O*

Take `CC(C)C[C@H](NC(=O)[C@H](Cc1ccccc1)NC(=O)c1cnccn1)B(O)O` [Bzb, Bortezomib, reference compound]: the “apoptosis of serum deprived MCOs” value in [1] (0.5% FBS) is listed as “comparable to standard control Bortizomib (Bzb)”. For the same compound, the “mineralization (Alizarin-S dye extraction)” value in series [2] is given as “comparable to Bzb treatment”. For the same compound, the “inhibition of 20 S proteasomal activity” value at 20 S proteasome was “comparable to Bzb”.
Consider `CC(=O)N[C@@H](CSC(=O)[C@]1([C@@H](O)C(C)C)NC(=O)[C@H](C)[C@@H]1O)C(=O)O` [Lactacystin, reference compound], for which, in the series on Smads, the “Activity: activity of Smads (in vitro)” value is “Increases”. The “inhibition of 20 S proteasomal activity” value at 20 S proteasome is “significantly inhibits the 20 S proteasomal activity”.
On to `CC1=C(C)C(=O)O[C@@H]([C@](C)(O)[C@H]2CC[C@H]3[C@@H]4[C@@H]5O[C@@H]5[C@@]5(O)CC=CC(=O)[C@]5(C)[C@H]4CC[C@]23C)C1` [WNA, Withanolide A], for which, in series [3] (48 h), the “ALP production / ALP activity compared with control” value was “significantly increased ALP production”. The “dose most effective in stimulating ALP activity” value (“dose most effective” below) in [3] is reported as 10 nM. For the same compound, in series [4], the “mRNA expression of collagen I” value was “stimulated mRNA expression of collagen I”.
As to `CC[C@H](C)[C@H](NC(=O)[C@H]([C@@H](C)CC)N(C)C(C)=O)C(=O)N[C@H](C(=O)N[C@@H](CC(C)C)C(=O)[C@@]1(C)CO1)[C@@H](C)O` [Epoxomicin], in series [5], the “Activity: bone volume and bone formation rate” value was “Increases bone”.
`CC[C@H](C)[C@H](NC(=O)OCc1ccccc1)C(=O)N[C@@H](CCC(=O)OC(C)(C)C)C(=O)N[C@@H](C)C(=O)N[C@H](C=O)CC(C)C` [PSI] (Cbz-IE(OtBu)AL-aldehyde): the “Activity: bone volume and bone formation rate” value in [5] was “Increases bone”.
For `CC1=C(CO)C(=O)O[C@@H]([C@@H](C)[C@H]2CC[C@H]3[C@@H]4C[C@H]5O[C@]56[C@@H](O)C=CC(=O)[C@]6(C)[C@H]4CC[C@]23C)C1` [WFA, Withaferin A], the “apoptotic cells (early and late)” value in series [1] (serum deprived (0.5% FBS) MCOs) is given as 3%. In series [6], the “serum osteocalcin (OCN) levels” value is “significant reduction in the levels of OCN”. Moreover, the “mineralization (Alizarin-S dye extraction)” value in series [2] is “significant increase in mineralization”. Further, the “callus mineralization / bridging of defect” value is “predominantly occupied mineralized callus, and the defect region was partially bridged” in series [7] (5 mg kg-1 d-1, after day 11 post drilling); “more increased mineralized callus within the intra medulla region to be remodeled to completely bridge the defect” in series [7] (10 mg kg-1 d-1, compared with 5 mg kg-1 d-1). For the same compound, in series [7] (5 and 10 mg kg-1 d-1, 21 days, vs vehicle), the “mineral deposition (intensity of calcein labeling in the drill hole)” value is “increased mineral deposition”. Also, in series [7] (OVx mice, 5 and 10 mg kg-1 d-1, vs OVx vehicle), the “mineral deposition in OVx mice” value is “increased mineral deposition in OVx mice”. Further, in the series on uterus of OVx mice, the uterine weight entry was “uterine weight comparable to OVx group”. Also, the “mRNA levels of TRAP and RANK” value with Mouse bone marrow cells was “significantly reduced mRNA levels of TRAP and RANK”. Also, the “concentration that maximally stimulated MCO proliferation” value in series [8] stood at 10 nM. Further, the “osteoblast proliferation (direct cell count and BrdU incorporation)” value in series [8] (vs control vehicle set as 100) is “concentration dependently stimulated osteoblast proliferation”. Besides, the “ALP activity compared to Bortizomib” value in [3] (10 nM, 48 h) is recorded as roughly 3 fold. Besides, the “ALP production / ALP activity compared with control” value in [3] (48 h) is “significantly increased ALP production”. Also, the “dose most effective” value in series [3] was 10 nM. Moreover, the “most effective dose (BV/TV, inter-dose comparison)” value in series [9] was determined as 10 mg/kg/day. For the same compound, on 20 S proteasome (10 nM), the “earliest time of inhibition of proteasomal 20 S subunit activity” value is given as 3 h. Also, the “maximum inhibition of proteasomal 20 S subunit activity” value on 20 S proteasome (10 nM, at 6 h, compared with positive control) is 40-50%. In [4], the “mRNA expression of collagen I” value is reported as “stimulated mRNA expression of collagen I”. The “expression of osteogenic genes RunX2, OCN and Col I” value in series [4] (normalized to GAPDH) is “increased expression of RunX2, OCN and Col I”.
For `CC1=C(C)C(=O)O[C@@H]([C@@H](C)[C@@]2(O)CC[C@H]3[C@@H]4[C@@H]5O[C@@H]5[C@@]5(O)CC=CC(=O)[C@]5(C)[C@H]4CC[C@@]32C)C1` [WN, Withanone], in series [3] (48 h), the “ALP production / ALP activity compared with control” value was “did not stimulate ALP activity significantly”. Also, the “dose most effective” value in series [3] amounted to 10 nM. For the same compound, the “mRNA expression of collagen I” value in series [4] is listed as “stimulated mRNA expression of collagen I”.
